Assay: method code SF-AS, from DOI: 10.1248/cpb.30.4175, PMID: 7165882

| SMILES | logP |
| --- | --- |
| CN(C)C(=O)OCc1cccc(Cl)c1 | 2.82 |
| CN(C)C(=O)OCc1ccc(OC(=O)N(C)C)cc1 | 1.59 |
| CN(C)C(=O)OCc1ccc(C#N)cc1 | 1.67 |
| CN(C)C(=O)OCc1ccc(I)cc1 | 3.32 |
| CN(C)C(=O)OCc1ccc([N+](=O)[O-])cc1 | 1.95 |
| COc1cccc(COC(=O)N(C)C)c1 | 2.09 |
| Cc1ccc(COC(=O)N(C)C)cc1 | 2.63 |
| COc1ccc(COC(=O)N(C)C)cc1 | 2.2 |
| CN(C)C(=O)OCc1ccc(OCc2ccccc2)cc1 | 3.27 |
| CN(C)C(=O)OCc1ccc(Cl)cc1 | 2.93 |
| CN(C)C(=O)OCc1ccc(F)cc1 | 2.3 |
| CN(C)C(=O)OCc1ccccc1 | 2.16 |
| CN(C)C(=O)OCc1ccc(Br)cc1 | 3.01 |

— the SangsterLogP compilation
